Experimental data published in ChEMBL document CHEMBL5523736, “The First Discovery of Marine Polyoxygenated Cembranolides as Potential Agents for the Treatment of Ulcerative Colitis” (J Med Chem, 2024).
The source made the active and inactive calls. No cut-off for these calls is given here.

Key:
RAW264.7 [1] = test: Antiinflammatory activity in LPS-induced mouse RAW264.7 cells assessed as reduction in TNF-alpha mRNA expression level at 20 uM by qRT-PCR analysis; type: functional, cell-based
RAW264.7 [2] = test: Antiinflammatory activity in mouse RAW264.7 cells assessed as inhibition of LPS-induced NO production at 20 uM incubated for 24 hrs relative to control; type: functional
RAW264.7 [3] = test: Antiinflammatory activity in LPS-induced mouse RAW264.7 cells assessed as reduction in iNOS mRNA expression level at 20 uM by qRT-PCR analysis; type: functional, cell-based
[4] = Cytotoxicity against mouse RAW264.7 cells assessed as cell viability at 20 uM incubated for 24 hrs by CCK8 assay relative to control; type: toxicity, cell-based; settings: read-out: Activity
RAW264.7 [5] = test: Antiinflammatory activity in LPS-induced mouse RAW264.7 cells assessed as reduction in IL-1beta mRNA expression level at 20 uM by qRT-PCR analysis; type: functional, cell-based
RAW264.7 [6] = test: Antiinflammatory activity in LPS-induced mouse RAW264.7 cells assessed as reduction in IL-6 mRNA expression level at 20 uM by qRT-PCR analysis; type: functional, cell-based
RAW264.7 [7] = test: Antiinflammatory activity in mouse RAW264.7 cells assessed as inhibition of LPS-induced NO production incubated for 24 hrs; type: functional, cell-based; settings: RAW264.7, 24 h

| Structure (SMILES) | Activity (RAW264.7 [1]) | inhibition at 20 µM (RAW264.7 [2]) [%] | Activity (RAW264.7 [3]) | viability at 24 h, 20 µM [4] [%] | Activity (RAW264.7 [5]) | Activity (RAW264.7 [6]) | IC50 (RAW264.7 [7]) [µM] |
| --- | --- | --- | --- | --- | --- | --- | --- |
| C=C1C(=O)O[C@]2(C)CC[C@@H]1C[C@@H]1O[C@@]1(C)CC[C@@H]1O[C@]1(C)CC[C@H]2OC(C)=O | Active | 141 | Active | 92.7 | Active | Active | 1.59 |
| C=C1C(=O)O[C@]2(C)CC[C@@H]1C[C@H](OC(C)=O)[C@@]1(C)CC[C@H](O1)C(=C)CC[C@H]2OC(C)=O [GRANOSOLIDE B] | – | 56 | – | 102 | – | – | – |
| C=C(C(=O)OC)[C@@H]1CC[C@@](C)(O)C(=O)CC/C(C)=C/CC[C@]2(C)O[C@H]2C1 | – | 35.7 | – | 116 | – | – | – |
| C=C1C(=O)O[C@]2(C)CC[C@@H]1C[C@H](O)[C@@]1(C)CC[C@H](O1)[C@](C)(O)CC[C@H]2OC(C)=O [QUERCIFORMOLIDE B] | – | 16.3 | – | 103 | – | – | – |
| C=C(C(=O)OC)[C@@H]1CC[C@@](C)(O)[C@@H]2CC[C@@](C)(O2)[C@@H](OC(C)=O)CC[C@]2(C)O[C@H]2C1 [DENDRONPHOLIDE G] | – | -49 | – | 83 | – | – | – |
| C=C(C(=O)OC)[C@@H]1C/C=C(/C)[C@@H](O)CC/C(C)=C/CC[C@]2(C)O[C@H]2C1 | – | 79.3 | – | 93.7 | – | – | – |
| C=C(C(=O)OC)[C@@H]1CC[C@@](C)(O)C(=O)CC[C@](C)(O)/C=C/C[C@]2(C)O[C@H]2C1 | – | 29.1 | – | 98.1 | – | – | – |
| C=C1C(=O)O[C@]2(C)CC[C@@H]1C[C@H](O)[C@@]1(C)CC[C@H](O1)[C@](C)(O)CCC2=O | – | 43 | – | 102 | – | – | – |
| C=C1C(=O)O[C@]2(C)CC[C@@H]1C[C@@H]1O[C@@]1(C)CC/C=C(\C)CC[C@@H]2O [SINULARIOLIDE] | Active | 108 | Active | 83.3 | Active | Active | 3.61 |
| C=C(C(=O)OC)[C@@H]1CC[C@@]2(C)O[C@@H]2CC[C@](C)(O)/C=C/C[C@]2(C)O[C@H]2C1 | – | 31.1 | – | 108 | – | – | – |
| C=C1C(=O)O[C@]2(C)CC[C@@H]1C[C@H](O)[C@@]1(C)CC[C@H](OC(C)=O)[C@@](C)(CCC2=O)O1 [QUERCIFORMOLIDE A] | – | 85.1 | – | 94.1 | – | – | 9.48 |
| C=C1CO[C@]2(C)CC[C@@H]1C[C@]1(O)O[C@@]1(C)CC/C=C(\C)CC[C@@H]2O | – | -146 | – | 82.3 | – | – | – |
| CNC(=N)NCCC[C@H](N)C(=O)O [TILARGININE] | – | 27.4 | – | 92.7 | – | – | 31.7 |
| C=C(C(=O)OC)[C@@H]1CC[C@]2(C)O[C@@]2(O)CC/C(C)=C/CC[C@]2(C)O[C@@H]2C1 | – | 0 | – | 94 | – | – | – |
| C=C1C(=O)O[C@]2(C)CC[C@@H]1C/C=C(\C)CC/C=C(\C)CC[C@@H]2O | – | 93.1 | – | 93.7 | – | – | 12.7 |
